Results as given in patent publication US20220281863A1, “COMPOUNDS, COMPOSITIONS AND METHODS OF TREATING DISORDERS” (Reverie Labs, Inc., priority 2019, published 2022).

target: T1, CDK9/CycTI (Homo sapiens, UniProt P50750); assay: In vitro kinase assay (ADP-Glo Kinase Assay Kit), CDK9/CycTI; assay type: biochemical; conditions: 30 ng CDK9/CycTI, 30 μM CDKtide, 10 μM ATP, 2 hours at room temperature; 8 to 10-point dose response (Tier2); read-out: IC50 Score
T1 construct: purchased Carna biosciences 04-110
T1 sequence (P50750 whole entry): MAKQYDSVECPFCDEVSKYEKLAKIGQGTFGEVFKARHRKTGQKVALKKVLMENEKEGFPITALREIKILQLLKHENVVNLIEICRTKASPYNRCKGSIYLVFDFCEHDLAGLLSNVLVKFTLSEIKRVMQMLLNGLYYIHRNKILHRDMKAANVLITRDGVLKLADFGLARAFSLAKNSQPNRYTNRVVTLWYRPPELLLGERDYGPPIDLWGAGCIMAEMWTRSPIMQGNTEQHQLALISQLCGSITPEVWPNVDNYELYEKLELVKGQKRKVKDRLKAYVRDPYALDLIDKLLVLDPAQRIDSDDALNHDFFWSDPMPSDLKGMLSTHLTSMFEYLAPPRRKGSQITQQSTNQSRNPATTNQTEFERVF
T1 sequence (O60563 whole entry partner): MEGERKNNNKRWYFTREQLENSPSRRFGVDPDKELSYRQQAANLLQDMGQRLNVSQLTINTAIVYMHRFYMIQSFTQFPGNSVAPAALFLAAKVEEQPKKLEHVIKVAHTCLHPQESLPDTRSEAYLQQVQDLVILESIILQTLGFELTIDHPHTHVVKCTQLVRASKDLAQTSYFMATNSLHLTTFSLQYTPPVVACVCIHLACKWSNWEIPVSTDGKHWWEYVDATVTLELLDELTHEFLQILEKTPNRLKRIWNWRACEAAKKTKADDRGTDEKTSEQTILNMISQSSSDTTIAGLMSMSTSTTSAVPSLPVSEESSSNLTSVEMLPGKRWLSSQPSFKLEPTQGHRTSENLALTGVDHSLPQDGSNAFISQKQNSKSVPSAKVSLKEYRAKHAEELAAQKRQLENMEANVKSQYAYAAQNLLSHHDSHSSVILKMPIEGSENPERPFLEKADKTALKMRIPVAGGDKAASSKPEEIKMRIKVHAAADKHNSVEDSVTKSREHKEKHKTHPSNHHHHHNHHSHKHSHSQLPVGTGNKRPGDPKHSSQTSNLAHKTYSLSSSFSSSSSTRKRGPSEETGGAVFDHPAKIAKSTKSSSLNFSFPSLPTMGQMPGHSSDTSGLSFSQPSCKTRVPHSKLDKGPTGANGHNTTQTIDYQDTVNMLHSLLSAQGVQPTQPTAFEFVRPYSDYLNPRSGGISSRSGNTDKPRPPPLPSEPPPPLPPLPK
Experimental: In vitro kinase assay was performed in white, 384-low volume plates in 5 μl reaction volume consisting of 30 ng CDK9/CycTI (Carna biosciences #04-110), 30 μM CDKtide (Signalchem #C06-58) and 10 μM ATP made in reaction buffer (40 mM Tris, pH 7.5; 20 mM MgCl2; 0.1 mg/ml BSA; 50 μM DTT) at 1 μM & 10 μM compound concentration for Tier1 assay and 8 to 10-point dose response curve for Tier2 assay. After 2 hours of incubation at room temperature, the amounts of […] in the kinase reaction were quantified using ADP-Glo™ Kinase Assay Kit (Promega #V9102). Briefly, 5 μl of ADP-Glo™ reagent was added to stop the kinase reaction and plate was incubated for 40 minutes at room temperature. Subsequently, 10 μl of Kinase Detection Reagent was added and luminescence was recorded after 30 minutes of incubation at room temperature.
The inhibition of kinase activity was determined relative to positive control (2% DMSO) and IC50 was calculated using GraphPad prism software (four parameter-variable slope equation).

IC50 | Structure (SMILES)
1 to 100 nM | CC(=O)N[C@H]1CCC[C@@H](C(=O)Nc2nc3ccc4cc(F)ccc4c3s2)C1 [Compound 79, (1R,3S)-3-acetamido-N-(7-fluoronaphtho[2,1-d]thiazol-2-yl)cyclohexane-1-carboxamide]
1000 to 20000 nM | O=C(Nc1nc2ccc3cc(F)ccc3c2s1)c1nncs1 [Compound 80]
500 to 1000 nM | CC(=O)N[C@@H]1CCC[C@@H](C(=O)Nc2nc3ccc4cc(F)ccc4c3s2)C1 [Compound 81]
1000 to 20000 nM | CC(C)(C)OC(=O)N1CC[C@H]1C(=O)Nc1nc2ccc3cc(F)ccc3c2s1 [Compound 84, Tert-butyl (S)-2-((7-fluoronaphtho[2,1-d]thiazol-2-yl)carbamoyl)azetidine-1-carboxylate]
100 to 500 nM | O=C(Nc1nc2ccc3cc(F)ccc3c2s1)[C@@H]1CCN1 [Compound 85, (S)—N-(7-fluoronaphtho[2,1-d]thiazol-2-yl)azetidine-2-carboxamide]
1 to 100 nM | CC(=O)N1CCC(C(=O)Nc2nc3ccc4cc(F)ccc4c3s2)CC1 [Compound 86]
1 to 100 nM | CN[C@@H]1CC[C@H](C(=O)Nc2nc3ccc4cc(F)ccc4c3s2)C1 [Compound 87, (1S,3R)—N-(7-fluoronaphtho[2,1-d]thiazol-2-yl)-3-(methylamino)cyclopentane-1-carboxamide]
1000 to 20000 nM | CC(C)(C)OC(=O)N1CC[C@@H](C(=O)Nc2nc3ccc4cc(F)ccc4c3s2)C1 [Compound 89]
500 to 1000 nM | O=C(Nc1nc2ccc3cc(F)ccc3c2s1)[C@H]1CCN1 [Compound 90, (R)—N-(7-fluoronaphtho[2,1-d]thiazol-2-yl)azetidine-2-carboxamide]
